In ChEMBL document CHEMBL5465560, “Selectivity Literature for EUbOPEN Chemogenomic Library” (2024) one finds % of control, % of inhibition and % binding data, which are given here for 6 compounds.

In test [1] the target is Ribosomal protein S6 kinase beta-1 (Homo sapiens, UniProt P23443). To be noted: at 10 µM.
In test [2] the target is T1, Bone morphogenetic protein receptor type-2 (Homo sapiens) (UniProt Q13873).
T1 sequence (whole entry): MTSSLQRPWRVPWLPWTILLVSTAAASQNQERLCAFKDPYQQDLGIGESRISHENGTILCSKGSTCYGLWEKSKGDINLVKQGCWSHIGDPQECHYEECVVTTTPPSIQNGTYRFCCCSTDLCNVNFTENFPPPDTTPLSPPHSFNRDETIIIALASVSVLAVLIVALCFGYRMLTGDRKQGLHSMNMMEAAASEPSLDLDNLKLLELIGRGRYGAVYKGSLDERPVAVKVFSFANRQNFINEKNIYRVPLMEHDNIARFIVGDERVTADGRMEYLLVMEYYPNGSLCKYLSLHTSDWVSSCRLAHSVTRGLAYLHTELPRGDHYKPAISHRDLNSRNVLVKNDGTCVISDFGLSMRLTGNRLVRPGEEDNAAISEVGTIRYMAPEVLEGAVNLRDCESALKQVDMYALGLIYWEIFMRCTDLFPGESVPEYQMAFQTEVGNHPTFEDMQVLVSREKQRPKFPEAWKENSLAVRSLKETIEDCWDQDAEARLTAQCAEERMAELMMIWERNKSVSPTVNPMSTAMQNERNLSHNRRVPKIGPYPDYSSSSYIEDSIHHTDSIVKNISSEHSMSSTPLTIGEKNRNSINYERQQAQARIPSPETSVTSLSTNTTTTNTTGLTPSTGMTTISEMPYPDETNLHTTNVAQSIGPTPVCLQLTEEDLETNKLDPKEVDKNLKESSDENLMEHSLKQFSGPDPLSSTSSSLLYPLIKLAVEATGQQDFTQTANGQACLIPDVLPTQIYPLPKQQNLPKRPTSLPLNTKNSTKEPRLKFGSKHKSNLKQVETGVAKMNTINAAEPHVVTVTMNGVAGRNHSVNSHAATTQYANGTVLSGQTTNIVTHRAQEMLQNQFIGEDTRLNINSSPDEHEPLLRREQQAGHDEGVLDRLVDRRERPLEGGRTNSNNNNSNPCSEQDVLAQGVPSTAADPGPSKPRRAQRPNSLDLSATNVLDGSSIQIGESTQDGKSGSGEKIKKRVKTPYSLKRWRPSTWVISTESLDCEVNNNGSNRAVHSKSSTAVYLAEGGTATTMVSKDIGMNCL
The test can be described thus: Selectivity interaction (KinomeScan (DiscoverX)) EUB0000607a BMPR2. To be noted: at 10 µM.

Test [3] addresses T2, Aurora kinase A (Homo sapiens) (UniProt O14965).
T2 sequence (whole entry): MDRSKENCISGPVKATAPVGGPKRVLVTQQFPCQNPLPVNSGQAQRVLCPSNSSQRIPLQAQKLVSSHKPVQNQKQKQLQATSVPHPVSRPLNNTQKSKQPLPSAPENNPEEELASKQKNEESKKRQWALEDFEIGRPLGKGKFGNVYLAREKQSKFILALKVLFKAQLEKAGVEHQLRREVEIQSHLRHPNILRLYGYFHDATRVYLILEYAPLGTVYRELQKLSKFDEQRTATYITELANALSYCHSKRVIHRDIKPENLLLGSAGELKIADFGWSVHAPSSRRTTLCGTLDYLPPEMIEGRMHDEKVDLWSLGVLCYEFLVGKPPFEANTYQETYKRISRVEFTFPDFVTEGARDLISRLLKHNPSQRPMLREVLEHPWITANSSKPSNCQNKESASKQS
The experiment in a line: Selectivity interaction (ActivX KiNativ screen (kinase selectivity in THP-1 cell lysates)) EUB0000639a STK6. The format is subcellular. To be noted: lysate.

For test [4], the system named is Receptor-type tyrosine-protein kinase FLT3 (Homo sapiens), P36888 [UNDEFINED MUTATION]. The test can be described thus: Selectivity interaction (KinomeScan (DiscoverX)) EUB0000229b FLT3. To be noted: at 1 µM.
Test [5] concerns the target T3, Hormonally up-regulated neu tumor-associated kinase (Homo sapiens) (UniProt P57058).
T3 sequence (whole entry): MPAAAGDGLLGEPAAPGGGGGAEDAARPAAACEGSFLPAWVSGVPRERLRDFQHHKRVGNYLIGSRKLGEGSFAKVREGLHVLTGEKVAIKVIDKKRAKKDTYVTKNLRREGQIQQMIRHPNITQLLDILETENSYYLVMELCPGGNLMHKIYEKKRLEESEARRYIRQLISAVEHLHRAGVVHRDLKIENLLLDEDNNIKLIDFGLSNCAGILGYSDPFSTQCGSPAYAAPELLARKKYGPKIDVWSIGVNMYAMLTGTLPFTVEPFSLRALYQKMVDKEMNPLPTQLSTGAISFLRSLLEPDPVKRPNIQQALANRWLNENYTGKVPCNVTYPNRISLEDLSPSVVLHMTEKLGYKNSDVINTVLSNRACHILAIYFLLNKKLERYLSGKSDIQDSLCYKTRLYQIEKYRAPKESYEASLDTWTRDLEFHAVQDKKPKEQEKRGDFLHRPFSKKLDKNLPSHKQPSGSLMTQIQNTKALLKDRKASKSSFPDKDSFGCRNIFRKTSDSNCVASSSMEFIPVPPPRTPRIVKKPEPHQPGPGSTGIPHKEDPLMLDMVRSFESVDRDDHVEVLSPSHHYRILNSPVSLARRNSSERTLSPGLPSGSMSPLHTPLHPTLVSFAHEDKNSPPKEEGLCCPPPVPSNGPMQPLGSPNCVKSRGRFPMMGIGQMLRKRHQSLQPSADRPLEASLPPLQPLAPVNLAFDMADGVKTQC
The test can be described thus: Selectivity interaction (KinomeScan (DiscoverX)) EUB0000595a HUNK. The settings on record: at 10 µM.

Test [6] concerns the target Inositol-tetrakisphosphate 1-kinase (Homo sapiens) (UniProt Q13572). The test can be described thus: Selectivity interaction (ActivX KiNativ screen (ex vivo kinase selectivity in human PBMCs)) EUB0001619a ITPK1. Format: cell-based. The settings on record: PBMC, at 1 µM.

Chain of Ribosomal protein S6 kinase beta-1 (P23443 whole entry, looked up): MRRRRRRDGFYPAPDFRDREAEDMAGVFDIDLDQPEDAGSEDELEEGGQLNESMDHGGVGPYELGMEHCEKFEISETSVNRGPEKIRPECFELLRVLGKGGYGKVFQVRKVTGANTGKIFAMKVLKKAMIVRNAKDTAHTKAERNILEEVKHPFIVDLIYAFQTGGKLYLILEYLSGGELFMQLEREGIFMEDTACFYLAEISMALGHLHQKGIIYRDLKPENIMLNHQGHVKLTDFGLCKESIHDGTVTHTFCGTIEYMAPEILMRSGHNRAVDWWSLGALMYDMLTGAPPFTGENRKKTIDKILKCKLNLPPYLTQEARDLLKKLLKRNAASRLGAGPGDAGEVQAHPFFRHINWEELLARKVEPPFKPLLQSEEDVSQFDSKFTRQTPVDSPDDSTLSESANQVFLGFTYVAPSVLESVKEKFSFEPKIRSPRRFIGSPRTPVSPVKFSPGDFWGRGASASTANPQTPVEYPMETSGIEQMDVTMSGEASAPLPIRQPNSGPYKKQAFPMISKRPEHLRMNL
Chain of Inositol-tetrakisphosphate 1-kinase (Homo sapiens) (Q13572 whole entry): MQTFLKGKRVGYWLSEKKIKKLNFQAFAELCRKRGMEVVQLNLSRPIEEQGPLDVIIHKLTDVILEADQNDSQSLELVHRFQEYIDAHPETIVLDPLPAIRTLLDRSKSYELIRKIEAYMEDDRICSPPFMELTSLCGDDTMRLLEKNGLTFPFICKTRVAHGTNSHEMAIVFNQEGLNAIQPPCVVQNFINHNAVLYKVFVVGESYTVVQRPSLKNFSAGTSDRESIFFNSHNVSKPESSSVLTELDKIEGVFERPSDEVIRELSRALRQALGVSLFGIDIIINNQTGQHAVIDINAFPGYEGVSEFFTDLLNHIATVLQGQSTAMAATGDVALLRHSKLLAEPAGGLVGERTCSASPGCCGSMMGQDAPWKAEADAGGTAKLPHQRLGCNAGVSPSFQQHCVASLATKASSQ
Chain of Receptor-type tyrosine-protein kinase FLT3 (Homo sapiens), P36888 [UNDEFINED MUTATION] (P36888 whole entry, looked up, change not shown): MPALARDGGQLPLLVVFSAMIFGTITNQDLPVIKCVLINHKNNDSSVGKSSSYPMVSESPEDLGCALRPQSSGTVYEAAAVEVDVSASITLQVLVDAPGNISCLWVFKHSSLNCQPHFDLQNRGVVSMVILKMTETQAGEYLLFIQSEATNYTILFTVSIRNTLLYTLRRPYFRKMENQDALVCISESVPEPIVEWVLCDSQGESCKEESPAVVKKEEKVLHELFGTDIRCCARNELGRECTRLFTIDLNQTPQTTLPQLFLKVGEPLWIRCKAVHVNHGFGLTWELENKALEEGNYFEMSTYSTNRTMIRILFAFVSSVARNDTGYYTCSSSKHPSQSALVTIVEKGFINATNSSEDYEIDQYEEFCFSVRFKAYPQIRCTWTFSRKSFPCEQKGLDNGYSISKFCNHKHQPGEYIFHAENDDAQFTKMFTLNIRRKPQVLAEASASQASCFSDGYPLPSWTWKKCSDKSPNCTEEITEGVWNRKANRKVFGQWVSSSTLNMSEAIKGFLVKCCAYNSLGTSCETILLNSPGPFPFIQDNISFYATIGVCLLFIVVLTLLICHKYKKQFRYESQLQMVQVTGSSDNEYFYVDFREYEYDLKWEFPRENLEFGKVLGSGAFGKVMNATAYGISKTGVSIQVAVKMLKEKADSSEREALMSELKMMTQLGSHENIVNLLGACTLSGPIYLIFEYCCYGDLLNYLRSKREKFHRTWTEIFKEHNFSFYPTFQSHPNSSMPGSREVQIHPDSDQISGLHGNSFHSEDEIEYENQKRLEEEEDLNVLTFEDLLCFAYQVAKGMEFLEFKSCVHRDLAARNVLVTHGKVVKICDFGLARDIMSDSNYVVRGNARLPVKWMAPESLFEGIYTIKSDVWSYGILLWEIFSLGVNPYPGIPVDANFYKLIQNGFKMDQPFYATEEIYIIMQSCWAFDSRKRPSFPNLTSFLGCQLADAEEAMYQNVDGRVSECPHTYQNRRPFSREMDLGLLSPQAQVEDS

In test [1], `Cc1cc([C@@H](C)Nc2ccccc2C(=O)O)c2nc(N3CCOCC3)cc(=O)n2c1` [AZD-6482] gave a % of control of 72%. `CNC(=O)Nc1ccc(-c2nc(N3CC4CCC(C3)O4)c3cnn(C4CCC5(CC4)OCCO5)c3n2)cc1` returned a % of control in test [2] of 83%. For the compound `CC[C@@H]1[C@H](F)C(=O)N[C@@H]1COc1nccc2cc(C(N)=O)c(OC)cc12` [ZIMLOVISERTIB], the % of inhibition in test [3] (at 0.01 µM) is -0.7%; in test [3] (at 0.04 µM) it was -2.4%; in test [3] (at 0.2 µM) it was 2.8%; in test [3] (at 1 µM) it was 26.7%; in test [3] (at 5 µM), 59.9%. Turning to `COc1cc(N(C)c2ccnc3ccc(C(F)(F)F)cc23)cc(OC)c1OC`, the % binding in test [4] was 100%.

In test [5], `COCC(=O)NC/C=C/c1ccc2ncnc(Nc3ccc(Oc4ccc(C)nc4)c(C)c3)c2c1` [CP-724714] returned a % of control of 70%. As to `N#Cc1cccc(-c2c[nH]c3ncnc(N4CCOCC4)c23)c1`, the % of inhibition in test [6] is -28%.
